Experiments:
[1] = test system: yeast (Saccharomyces cerevisiae); test: Effect of biocide on fermentation yeast in corn fermentation; assay type: cell-based
Method: (§1) Experiments were conducted to evaluate the effectiveness of a nonoxidizing biocide as an antimicrobial agent for control of Lactobacillus infections in ethanol fermentation. The nonoxidizing biocide was BRONAM® 20 (20% 2,2-dibromo-3-nitrilopropionamide). The lactobacilli was L. plantarum. The yeast was Saccharomyces cereviseae. Corn mashes containing approximately 30% (w/w) dry solids were used.
A 0.2-g/ml suspension of yeast (Saccharomyces cerevisiae; Ethanol Red; Fermentis, Marcq-en-Baroeul, France) was prepared in a sterile 250-ml flask. This suspension was incubated and mixed for 20 minutes at 40° C. before inoculation into the fermentation flasks. […]
Each flask was mixed with an overhead agitator and samples were collected for the following measurements: yeast cell counts, final concentrations of substrates (glucose, DP2, DP3, and DP4+, where “DPx” represent glucose oligomers with “x” subunits), fermentation products (ethanol, glycerol, lactic acid, and acetic acid), total dry solids, and dissolved dry solids, and the density of the beer liquid phase. […] Samples were prepared for yeast cell counts by diluting at a factor of 100 in deionized water and staining with methylene blue to estimate viability then counted microscopically using a hemacytometer. The final concentrations of substrates and fermentation products were determined by HPLC. […]

Lactobacillus plantarum = test: Corn mash ethanol fermentation infected with L. plantarum, treated with nonoxidizing biocide; assay type: cell-based; conditions: fermentation conditions typical of fuel-ethanol industry
Method: as §1
For slurry preparation, the moisture of ground corn was determined gravimetrically using a moisture balance by measuring the mass loss that occurred upon drying. The amount of corn, deionized (DI) water, and enzyme needed to prepare 160 g of corn slurry at a total dry solids concentration of 30% (w/w) for each replicate was determined. […]
For fermentation, once the mash was cooled, the entire contents (approximately 160 g) of each Labomat beaker were transferred to a sterile 250-ml Erlenmeyer flask. The masses of the mash and flasks were recorded, and the mass of mash transferred to the fermentation flasks was calculated. […]
The L. plantarum culture was prepared for inoculation by growing throughout the day in 100-ml of MRS broth. […] The initial concentration of the bacteria was determined by plating serial dilutions of the culture on MRS agar containing cycloheximide and incubating at 32° C. for 2 days before counting colonies. […]

[2] = Persistence of intact biocide under fermentation tank conditions; assay type: physicochemical; conditions: conditions in the fermentation tank; based on laboratory work
Method: Under the conditions in the fermentation tank, DBNPA is expected to last intact only about 1-2 hours, based on laboratory work. The stillage, i.e., fermented unevaporated product (post “beer tank”) of distillation, is centrifuged, and dried (e.g., about 1 hour at about 250-300° F.), then the mixture is pumped over to a final tank where it is called the DDGS. DDGS is about ⅓ mass of the starting raw material for corn. The chemistry of DBNPA is not expected to endure and survive the centrifugation and heat of drying prior to entering distillers dried grains with solubles (DDGS) stage. In the corn-to-ethanol process, for example, DBNPA is expected to degrade to carbon dioxide and water vapor, and, as such, would have low environmental impact. […] The application of DBNPA avoids the use of antibiotics, which can remain stable throughout the process. The use of DBNPA makes the use of antibiotics unnecessary. The use of DBNPA is more economical since the cost of antibiotics (as the only treatment widely employed) can be relatively high and costly to the fermentation. […]

Lactobacillus fermentans = test: Kull synergism test in 25% strength MRS broth, quantities producing endpoints; assay type: cell-based; conditions: Nisin alone, 37° C., 24 hours
Method: Lactobacilli MRS broth (25% strength) was prepared and dispensed in 10 ml amounts into test tubes and autoclaved for 20 minutes at 121° C. The biocides were added to the test tubes in the desired concentrations, and then 100 microliters of an overnight broth of Lactobacillus fermentans were added to the respective test tubes and incubated at 37° C. for 24 hours.
When the sum of QA/Qa and QB/Qb is greater than one, antagonism is indicated and when the sum is equal to one, additivity is indicated. When the sum of this value is less than one, synergism exists.

Row | Compound | effect on yeast [1] | effect on lactobacilli (Lactobacillus plantarum) | time the biocide lasts intact [2] [h] | Qa, concentration of Compound A acting alone which produced an endpoint (Lactobacillus fermentans; Example 2) [ppm] | Qa, concentration of Compound A acting alone which produced an endpoint (Lactobacillus fermentans; Example 3) [ppm]
1 | N#CC(Br)(Br)C(N)=O [2,2-dibromo-3-nitrilopropionamide] | does not kill the yeast | kills the bacteria (lactobacilli) | 1 to 2 | – | –
2 | Nisin | – | – | – | 1.0 | 1.0
